Results: the kinase profiling compilation of Christmann-Franck et al. (2016)

Legend:
Assay in all cases: KINOMEscan competition binding
Conditions in all cases: compound 10.0 µM
FGFR1 (human) = FGFR1 (human) (UniProt P11362)
MYO3B (human) = MYO3B (human) (UniProt Q8WXR4)
PKMYT1 (human) = PKMYT1 (human) (UniProt Q99640)
CDC42BPG (human) = CDC42BPG (human) (UniProt Q6DT37)
[1] = test system: ABL1 (human), P00519 [Q252H]
MYLK2 (human) = MYLK2 (human) (UniProt Q9H1R3)
MAP2K1 (human) = MAP2K1 (human) (UniProt Q02750)
CAMK2B (human) = CAMK2B (human) (UniProt Q13554)
INSR (human) = INSR (human) (UniProt P06213)
STK25 (human) = STK25 (human) (UniProt O00506)
MAP4K5 (human) = MAP4K5 (human) (UniProt Q9Y4K4)
MAPK14 (human) = MAPK14 (human) (UniProt Q16539)
ADCK4 (human) = ADCK4 (human) (UniProt Q96D53)
ZAP70 (human) = ZAP70 (human) (UniProt P43403)
IKBKE (human) = IKBKE (human) (UniProt Q14164)
RET (human) = RET (human) (UniProt P07949)
MAPK1 (human) = MAPK1 (human) (UniProt P28482)
MAP4K3 (human) = MAP4K3 (human) (UniProt Q8IVH8)
STK36 (human) = STK36 (human) (UniProt Q9NRP7)
EPHA5 (human) = EPHA5 (human) (UniProt P54756)
FGFR2 (human) = FGFR2 (human) (UniProt P21802)
RPS6KA6 KD1 (human) = RPS6KA6 KD1 (human) (UniProt Q9UK32)
MAPK9 (human) = MAPK9 (human) (UniProt P45984)
[2] = test system: ABL1 (human), P00519 [Y253F]
RPS6KA5 KD1 (human) = RPS6KA5 KD1 (human) (UniProt O75582)
EPHB3 (human) = EPHB3 (human) (UniProt P54753)
[3] = test system: RET (human), P07949 [V804L]
FLT4 (human) = FLT4 (human) (UniProt P35916)
NEK5 (human) = NEK5 (human) (UniProt Q6P3R8)
EPHB4 (human) = EPHB4 (human) (UniProt P54760)
EPHB1 (human) = EPHB1 (human) (UniProt P54762)
ULK1 (human) = ULK1 (human) (UniProt O75385)
STK35 (human) = STK35 (human) (UniProt Q8TDR2)
RPS6KA2 KD1 (human) = RPS6KA2 KD1 (human) (UniProt Q15349)
HCK (human) = HCK (human) (UniProt P08631)
PRKX (human) = PRKX (human) (UniProt P51817)
MARK1 (human) = MARK1 (human) (UniProt Q9P0L2)
MAPK10 (human) = MAPK10 (human) (UniProt P53779)
PRKD2 (human) = PRKD2 (human) (UniProt Q9BZL6)
CDC42BPA (human) = CDC42BPA (human) (UniProt Q5VT25)
MAPK7 (human) = MAPK7 (human) (UniProt Q13164)
PAK4 (human) = PAK4 (human) (UniProt O96013)

Chain of MAP4K5 (human) (Q9Y4K4 whole entry, looked up): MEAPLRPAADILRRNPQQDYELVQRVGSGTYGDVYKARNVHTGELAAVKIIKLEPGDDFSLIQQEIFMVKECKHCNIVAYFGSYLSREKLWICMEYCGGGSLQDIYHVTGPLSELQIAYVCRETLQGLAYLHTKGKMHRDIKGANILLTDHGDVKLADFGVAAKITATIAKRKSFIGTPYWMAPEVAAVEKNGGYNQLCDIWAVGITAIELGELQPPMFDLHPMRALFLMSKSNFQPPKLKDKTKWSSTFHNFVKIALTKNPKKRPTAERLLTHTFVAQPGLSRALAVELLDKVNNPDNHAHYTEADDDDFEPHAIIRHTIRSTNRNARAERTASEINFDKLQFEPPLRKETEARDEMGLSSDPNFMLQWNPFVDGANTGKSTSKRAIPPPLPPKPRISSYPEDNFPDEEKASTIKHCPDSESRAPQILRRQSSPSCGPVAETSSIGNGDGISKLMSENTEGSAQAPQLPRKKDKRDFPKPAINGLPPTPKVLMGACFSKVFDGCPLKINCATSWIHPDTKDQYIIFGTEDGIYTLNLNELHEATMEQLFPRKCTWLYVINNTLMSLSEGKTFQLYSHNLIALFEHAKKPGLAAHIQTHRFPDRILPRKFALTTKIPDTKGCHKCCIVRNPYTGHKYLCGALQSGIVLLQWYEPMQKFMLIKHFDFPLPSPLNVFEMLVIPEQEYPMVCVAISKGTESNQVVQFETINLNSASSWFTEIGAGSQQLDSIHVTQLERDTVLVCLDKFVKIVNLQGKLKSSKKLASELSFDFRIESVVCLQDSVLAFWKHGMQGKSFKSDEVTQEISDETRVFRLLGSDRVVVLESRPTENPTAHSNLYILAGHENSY
Chain of CDC42BPA (human) (Q5VT25 whole entry, looked up): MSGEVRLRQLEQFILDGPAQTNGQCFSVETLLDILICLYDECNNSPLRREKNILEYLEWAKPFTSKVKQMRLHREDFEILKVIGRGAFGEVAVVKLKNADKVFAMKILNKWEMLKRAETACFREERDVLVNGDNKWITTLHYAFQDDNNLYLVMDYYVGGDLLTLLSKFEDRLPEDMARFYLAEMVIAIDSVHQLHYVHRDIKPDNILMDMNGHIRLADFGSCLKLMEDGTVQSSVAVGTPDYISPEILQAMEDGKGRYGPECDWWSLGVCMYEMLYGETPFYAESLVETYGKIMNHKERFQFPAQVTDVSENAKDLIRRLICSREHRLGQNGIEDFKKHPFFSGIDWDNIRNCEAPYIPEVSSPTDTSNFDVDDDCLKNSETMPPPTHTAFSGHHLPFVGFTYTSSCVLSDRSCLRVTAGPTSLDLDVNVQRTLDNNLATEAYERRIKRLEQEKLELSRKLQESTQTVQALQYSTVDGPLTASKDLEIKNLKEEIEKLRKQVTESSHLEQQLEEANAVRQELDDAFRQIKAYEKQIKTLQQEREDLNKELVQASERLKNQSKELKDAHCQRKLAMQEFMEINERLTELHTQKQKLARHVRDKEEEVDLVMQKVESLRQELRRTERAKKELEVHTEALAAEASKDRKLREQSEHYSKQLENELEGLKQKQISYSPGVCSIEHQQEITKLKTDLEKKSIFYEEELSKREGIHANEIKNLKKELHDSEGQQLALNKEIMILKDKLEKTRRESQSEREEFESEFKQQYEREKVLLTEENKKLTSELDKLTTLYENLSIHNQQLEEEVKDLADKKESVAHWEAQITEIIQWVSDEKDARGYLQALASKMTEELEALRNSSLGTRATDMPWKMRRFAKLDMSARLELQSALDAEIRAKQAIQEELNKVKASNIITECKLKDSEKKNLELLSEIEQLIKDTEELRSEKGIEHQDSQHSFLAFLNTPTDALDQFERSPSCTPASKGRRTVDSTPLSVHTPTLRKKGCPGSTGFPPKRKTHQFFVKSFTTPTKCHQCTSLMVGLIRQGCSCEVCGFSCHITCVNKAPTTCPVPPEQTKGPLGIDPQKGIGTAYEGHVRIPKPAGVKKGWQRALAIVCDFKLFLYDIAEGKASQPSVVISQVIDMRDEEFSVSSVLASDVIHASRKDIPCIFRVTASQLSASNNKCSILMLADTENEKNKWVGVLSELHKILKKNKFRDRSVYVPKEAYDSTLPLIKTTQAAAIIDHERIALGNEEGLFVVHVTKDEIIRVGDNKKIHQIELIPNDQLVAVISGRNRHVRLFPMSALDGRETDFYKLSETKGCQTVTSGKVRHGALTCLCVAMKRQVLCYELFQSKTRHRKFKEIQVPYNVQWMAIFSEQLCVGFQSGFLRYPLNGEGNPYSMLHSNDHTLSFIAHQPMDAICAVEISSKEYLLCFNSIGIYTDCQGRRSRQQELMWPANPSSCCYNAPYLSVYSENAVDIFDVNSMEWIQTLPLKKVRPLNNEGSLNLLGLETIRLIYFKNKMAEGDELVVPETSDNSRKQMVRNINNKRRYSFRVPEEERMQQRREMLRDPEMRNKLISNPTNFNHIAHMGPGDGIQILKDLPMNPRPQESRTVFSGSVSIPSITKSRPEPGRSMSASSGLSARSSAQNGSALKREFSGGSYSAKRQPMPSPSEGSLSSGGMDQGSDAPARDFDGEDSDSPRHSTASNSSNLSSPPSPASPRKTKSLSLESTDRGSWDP
Chain of EPHB3 (human) (P54753 whole entry, looked up): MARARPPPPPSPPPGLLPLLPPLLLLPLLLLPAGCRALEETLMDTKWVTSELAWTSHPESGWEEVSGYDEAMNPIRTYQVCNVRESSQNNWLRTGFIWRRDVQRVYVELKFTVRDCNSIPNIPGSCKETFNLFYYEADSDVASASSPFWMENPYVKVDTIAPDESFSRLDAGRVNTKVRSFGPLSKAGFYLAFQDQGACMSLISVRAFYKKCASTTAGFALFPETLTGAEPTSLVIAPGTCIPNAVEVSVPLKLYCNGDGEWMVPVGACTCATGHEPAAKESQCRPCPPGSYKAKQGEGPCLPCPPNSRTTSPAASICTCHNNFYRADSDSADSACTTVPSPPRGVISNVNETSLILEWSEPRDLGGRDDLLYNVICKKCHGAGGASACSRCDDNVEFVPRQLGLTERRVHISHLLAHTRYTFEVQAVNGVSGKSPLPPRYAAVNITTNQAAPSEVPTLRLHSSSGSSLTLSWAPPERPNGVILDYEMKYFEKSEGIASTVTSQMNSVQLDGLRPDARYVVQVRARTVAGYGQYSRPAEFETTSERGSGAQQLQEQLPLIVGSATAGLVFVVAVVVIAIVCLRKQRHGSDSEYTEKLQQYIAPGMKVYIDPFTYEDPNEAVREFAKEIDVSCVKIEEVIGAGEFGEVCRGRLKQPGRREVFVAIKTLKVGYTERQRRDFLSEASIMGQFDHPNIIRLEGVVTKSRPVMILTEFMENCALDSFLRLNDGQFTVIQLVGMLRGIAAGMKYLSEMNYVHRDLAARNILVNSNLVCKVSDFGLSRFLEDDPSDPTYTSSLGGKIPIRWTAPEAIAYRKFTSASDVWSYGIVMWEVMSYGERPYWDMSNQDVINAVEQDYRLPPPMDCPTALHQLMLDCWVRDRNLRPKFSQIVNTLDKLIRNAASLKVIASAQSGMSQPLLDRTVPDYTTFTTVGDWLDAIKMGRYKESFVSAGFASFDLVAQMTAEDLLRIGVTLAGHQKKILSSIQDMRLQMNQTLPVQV
Chain of HCK (human) (P08631 whole entry, looked up): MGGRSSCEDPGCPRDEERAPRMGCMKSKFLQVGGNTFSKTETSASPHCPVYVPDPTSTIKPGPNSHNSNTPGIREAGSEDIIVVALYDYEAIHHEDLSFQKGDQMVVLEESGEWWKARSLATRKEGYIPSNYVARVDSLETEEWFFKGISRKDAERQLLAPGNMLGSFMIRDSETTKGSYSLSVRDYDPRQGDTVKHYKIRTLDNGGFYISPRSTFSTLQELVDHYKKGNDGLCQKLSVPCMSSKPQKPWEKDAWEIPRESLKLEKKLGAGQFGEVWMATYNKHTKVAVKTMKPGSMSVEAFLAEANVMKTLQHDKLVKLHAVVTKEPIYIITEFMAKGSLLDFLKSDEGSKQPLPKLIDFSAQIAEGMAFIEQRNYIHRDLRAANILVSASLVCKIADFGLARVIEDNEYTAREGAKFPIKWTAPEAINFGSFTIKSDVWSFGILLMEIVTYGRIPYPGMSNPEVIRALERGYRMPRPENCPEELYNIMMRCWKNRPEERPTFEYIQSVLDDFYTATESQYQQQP
Chain of PKMYT1 (human) (Q99640 whole entry, looked up): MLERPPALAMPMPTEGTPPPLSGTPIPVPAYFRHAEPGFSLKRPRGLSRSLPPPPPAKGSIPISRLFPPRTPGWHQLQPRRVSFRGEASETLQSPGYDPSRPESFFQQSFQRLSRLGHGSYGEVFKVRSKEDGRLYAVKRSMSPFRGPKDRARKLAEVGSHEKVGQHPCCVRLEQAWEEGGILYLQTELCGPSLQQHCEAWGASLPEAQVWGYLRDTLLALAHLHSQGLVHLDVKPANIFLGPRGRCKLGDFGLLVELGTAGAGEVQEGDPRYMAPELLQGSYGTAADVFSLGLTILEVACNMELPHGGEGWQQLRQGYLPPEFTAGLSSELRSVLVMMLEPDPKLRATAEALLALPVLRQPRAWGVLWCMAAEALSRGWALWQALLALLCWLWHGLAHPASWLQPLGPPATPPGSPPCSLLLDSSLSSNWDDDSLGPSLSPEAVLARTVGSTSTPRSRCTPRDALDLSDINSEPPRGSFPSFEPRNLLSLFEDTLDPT
Chain of STK25 (human) (O00506 whole entry, looked up): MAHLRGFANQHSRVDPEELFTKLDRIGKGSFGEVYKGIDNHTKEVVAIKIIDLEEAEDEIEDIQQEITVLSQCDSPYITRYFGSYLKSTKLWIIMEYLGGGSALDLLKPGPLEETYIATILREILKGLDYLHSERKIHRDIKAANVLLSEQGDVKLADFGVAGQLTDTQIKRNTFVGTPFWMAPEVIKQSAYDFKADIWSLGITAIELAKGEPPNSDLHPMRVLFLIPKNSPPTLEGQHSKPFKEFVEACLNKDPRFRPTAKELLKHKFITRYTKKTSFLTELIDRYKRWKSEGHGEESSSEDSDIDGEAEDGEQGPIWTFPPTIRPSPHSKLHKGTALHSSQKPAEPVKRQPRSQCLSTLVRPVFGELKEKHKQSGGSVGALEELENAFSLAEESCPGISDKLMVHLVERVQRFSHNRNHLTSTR

## CN1C(=O)c2ccccc2N(C)c2nc(Nc3ccc(N4CCC(O)CC4)cc3)ncc21
FGFR1 (human)
  kinase still bound, per cent of control: 61%
MYO3B (human)
  kinase still bound, per cent of control: 73%
PKMYT1 (human)
  kinase still bound, per cent of control: 100%
CDC42BPG (human)
  kinase still bound, per cent of control: 100%
[1]
  kinase still bound, per cent of control: 2.1%
MYLK2 (human)
  kinase still bound, per cent of control: 80%
MAP2K1 (human)
  kinase still bound, per cent of control: 100%
CAMK2B (human)
  kinase still bound, per cent of control: 100%
INSR (human)
  kinase still bound, per cent of control: 80%
STK25 (human)
  kinase still bound, per cent of control: 96%
MAP4K5 (human)
  kinase still bound, per cent of control: 85%
MAPK14 (human)
  kinase still bound, per cent of control: 100%
ADCK4 (human)
  kinase still bound, per cent of control: 78%
ZAP70 (human)
  kinase still bound, per cent of control: 87%
IKBKE (human)
  kinase still bound, per cent of control: 87%
RET (human)
  kinase still bound, per cent of control: 15%
MAPK1 (human)
  kinase still bound, per cent of control: 100%
MAP4K3 (human)
  kinase still bound, per cent of control: 45%
STK36 (human)
  kinase still bound, per cent of control: 100%
EPHA5 (human)
  kinase still bound, per cent of control: 100%
FGFR2 (human)
  kinase still bound, per cent of control: 63%
RPS6KA6 KD1 (human)
  kinase still bound, per cent of control: 61%
MAPK9 (human)
  kinase still bound, per cent of control: 100%
[2]
  kinase still bound, per cent of control: 1.9%
RPS6KA5 KD1 (human)
  kinase still bound, per cent of control: 100%
EPHB3 (human)
  kinase still bound, per cent of control: 100%
[3]
  kinase still bound, per cent of control: 1.7%
FLT4 (human)
  kinase still bound, per cent of control: 100%
NEK5 (human)
  kinase still bound, per cent of control: 100%
EPHB4 (human)
  kinase still bound, per cent of control: 100%
EPHB1 (human)
  kinase still bound, per cent of control: 100%
ULK1 (human)
  kinase still bound, per cent of control: 16%
STK35 (human)
  kinase still bound, per cent of control: 96%
RPS6KA2 KD1 (human)
  kinase still bound, per cent of control: 68%
HCK (human)
  kinase still bound, per cent of control: 35%
PRKX (human)
  kinase still bound, per cent of control: 93%
MARK1 (human)
  kinase still bound, per cent of control: 59%
MAPK10 (human)
  kinase still bound, per cent of control: 100%
PRKD2 (human)
  kinase still bound, per cent of control: 99%
CDC42BPA (human)
  kinase still bound, per cent of control: 90%
MAPK7 (human)
  kinase still bound, per cent of control: 0.25%
PAK4 (human)
  kinase still bound, per cent of control: 97%

## CN1C(=O)c2ccccc2N(C)c2nc(NS(=O)(=O)c3ccc(N)cc3)ncc21
FGFR1 (human)
  kinase still bound, per cent of control: 100%
MYO3B (human)
  kinase still bound, per cent of control: 74%
PKMYT1 (human)
  kinase still bound, per cent of control: 100%
CDC42BPG (human)
  kinase still bound, per cent of control: 100%
[1]
  kinase still bound, per cent of control: 82%
MYLK2 (human)
  kinase still bound, per cent of control: 88%
MAP2K1 (human)
  kinase still bound, per cent of control: 100%
CAMK2B (human)
  kinase still bound, per cent of control: 100%
INSR (human)
  kinase still bound, per cent of control: 95%
STK25 (human)
  kinase still bound, per cent of control: 100%
MAP4K5 (human)
  kinase still bound, per cent of control: 100%
MAPK14 (human)
  kinase still bound, per cent of control: 100%
ADCK4 (human)
  kinase still bound, per cent of control: 91%
ZAP70 (human)
  kinase still bound, per cent of control: 100%
IKBKE (human)
  kinase still bound, per cent of control: 100%
RET (human)
  kinase still bound, per cent of control: 100%
MAPK1 (human)
  kinase still bound, per cent of control: 100%
MAP4K3 (human)
  kinase still bound, per cent of control: 100%
STK36 (human)
  kinase still bound, per cent of control: 100%
EPHA5 (human)
  kinase still bound, per cent of control: 100%
FGFR2 (human)
  kinase still bound, per cent of control: 100%
RPS6KA6 KD1 (human)
  kinase still bound, per cent of control: 100%
MAPK9 (human)
  kinase still bound, per cent of control: 100%
[2]
  kinase still bound, per cent of control: 100%
RPS6KA5 KD1 (human)
  kinase still bound, per cent of control: 99%
EPHB3 (human)
  kinase still bound, per cent of control: 100%
[3]
  kinase still bound, per cent of control: 100%
FLT4 (human)
  kinase still bound, per cent of control: 100%
NEK5 (human)
  kinase still bound, per cent of control: 100%
EPHB4 (human)
  kinase still bound, per cent of control: 100%
EPHB1 (human)
  kinase still bound, per cent of control: 100%
ULK1 (human)
  kinase still bound, per cent of control: 85%
STK35 (human)
  kinase still bound, per cent of control: 100%
RPS6KA2 KD1 (human)
  kinase still bound, per cent of control: 100%
HCK (human)
  kinase still bound, per cent of control: 100%
PRKX (human)
  kinase still bound, per cent of control: 94%
MARK1 (human)
  kinase still bound, per cent of control: 100%
MAPK10 (human)
  kinase still bound, per cent of control: 100%
PRKD2 (human)
  kinase still bound, per cent of control: 100%
CDC42BPA (human)
  kinase still bound, per cent of control: 90%
MAPK7 (human)
  kinase still bound, per cent of control: 100%
PAK4 (human)
  kinase still bound, per cent of control: 100%
